Experimental data taken from patent US20240116985A1, “STAPLED PEPTIDES AND METHODS THEREOF” (priority 2020, published 2024).
In brackets after ≈: the same amount, converted by molar mass. Read-outs that look alike come from different tables or passages of the source.

Legend:
Solubility in PBS = format: physicochemical
Summary of the method: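 Steps: ultracentrifuge the peptide PBS solution, inject the supernatant on HPLC, inject a 50 μM peptide DMSO solution as reference, then calculate solubility as area ratio (PBS/DMSO) × 50 uM.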

CHI Log D procedure = format: physicochemical; conditions: for CHI Log D: pH 7.4; for chromatographic logD: pH 7.4, CHI Log D
[1] = biological target: T1, full-length beta-Catenin (Uniprot ID P35222) (Homo sapiens, UniProt P35222); assay: Fluorescence polarization IC50 (beta-catenin / 5FAM-TCF4 10-53 competition); format: binding
T1 construct: 10 nM full-length beta-Catenin (Uniprot ID P35222)
T1 sequence (P35222 1-781): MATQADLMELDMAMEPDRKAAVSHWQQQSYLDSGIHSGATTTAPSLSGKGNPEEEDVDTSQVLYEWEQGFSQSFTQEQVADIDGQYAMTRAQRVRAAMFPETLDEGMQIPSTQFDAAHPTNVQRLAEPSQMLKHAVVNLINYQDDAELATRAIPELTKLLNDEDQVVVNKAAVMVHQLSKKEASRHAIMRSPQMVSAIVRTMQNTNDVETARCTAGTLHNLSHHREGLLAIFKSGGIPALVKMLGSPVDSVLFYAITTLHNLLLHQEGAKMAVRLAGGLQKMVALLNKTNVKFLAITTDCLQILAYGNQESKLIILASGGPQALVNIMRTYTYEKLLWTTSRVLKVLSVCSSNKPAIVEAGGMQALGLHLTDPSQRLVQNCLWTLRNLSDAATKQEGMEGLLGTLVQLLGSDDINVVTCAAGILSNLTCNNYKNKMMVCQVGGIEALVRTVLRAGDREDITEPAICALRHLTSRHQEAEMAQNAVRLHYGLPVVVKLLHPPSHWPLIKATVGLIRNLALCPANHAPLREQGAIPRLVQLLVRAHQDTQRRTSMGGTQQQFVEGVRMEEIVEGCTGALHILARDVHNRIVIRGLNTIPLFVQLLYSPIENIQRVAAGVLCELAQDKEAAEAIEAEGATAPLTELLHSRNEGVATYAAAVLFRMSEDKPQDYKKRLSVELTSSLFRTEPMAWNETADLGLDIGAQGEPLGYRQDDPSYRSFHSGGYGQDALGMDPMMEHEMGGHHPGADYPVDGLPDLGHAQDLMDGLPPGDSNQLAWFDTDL

[2] = fluorescence polarization, read-out: beta-Catenin FP IC50

## CC[C@H](C)[C@H](NC(=O)[C@H](Cc1c[nH]cn1)NC(=O)[C@H](Cc1csc2ccccc12)NC(=O)[C@H](Cc1ccccc1)NC(=O)[C@]1(C)CCCCCCC=CCCCC2(CCCC=CC[C@]3(CCCN3C(C)=O)C(=O)N[C@@H](CC(=O)O)C(=O)N[C@@H](CC(C)C)C(=O)N2)C(=O)N[C@@H](CC(=O)O)C(=O)N[C@@H](CCC(=O)O)C(=O)N[C@@H](C)C(=O)N[C@@H](C)C(=O)N[C@@H](Cc2ccccc2)C(=O)N[C@@H](CC(N)=O)C(=O)N1)C(N)=O (stereo partly drawn) [I-741, Ac-PL3-Asp-Leu-B5-Asp-Glu-Ala-Ala-Phe-Asn-S8-Phe-BztA-His-Ile-NH2]
Solubility in PBS
  Solubility: 10 µM (≈ 19.9 µg/mL)
CHI Log D procedure
  CHI Log D: 2.915
[1]; [2]
  IC50: 226 nM
[1]; read-out: FP EC50
  IC50: 226 nM

## CC[C@@H](C)[C@@H](NC(=O)[C@H](Cc1c[nH]cn1)NC(=O)[C@H](Cc1csc2ccccc12)NC(=O)[C@H](Cc1ccccc1)NC(=O)[C@]1(C)CCCCCCC=CCCCC2(CCCC=CC[C@]3(CCCN3C(C)=O)C(=O)N[C@@H](CC(=O)O)C(=O)N[C@@H](CC(C)C)C(=O)N2)C(=O)N[C@@H](CC(=O)O)C(=O)N[C@@H](CCC(=O)O)C(=O)N[C@@H](C)C(=O)N[C@@H](C)C(=O)N[C@@H](Cc2ccccc2)C(=O)N[C@@H](CC(N)=O)C(=O)N1)C(N)=O (stereo partly drawn) [I-742, Ac-PL3-Asp-Leu-B5-Asp-Glu-Ala-Ala-Phe-Asn-S8-Phe-BztA-His-dIle-NH2]
Solubility in PBS; Solubility (uM)
  Solubility: 27 µM (≈ 53.8 µg/mL)
CHI Log D procedure
  chromatographic logD: 2.8
[1]; [2]
  IC50: 159 nM

## CC(=O)N1CCC[C@]12CC=CCCCC1(CCCC=CCCCCCC[C@@](C)(C(=O)N[C@@H](Cc3ccccc3)C(=O)N[C@@H](Cc3csc4ccccc34)C(=O)N[C@@H](Cc3c[nH]cn3)C(=O)NC(C)(C)C(N)=O)NC(=O)[C@H](CC(N)=O)NC(=O)[C@H](Cc3ccccc3)NC(=O)[C@H](C)NC(=O)[C@H](C)NC(=O)[C@H](CCC(=O)O)NC(=O)[C@H](CC(=O)O)NC1=O)NC(=O)[C@H](CC(C)C)NC(=O)[C@H](CC(=O)O)NC2=O (stereo partly drawn) [I-743, Ac-PL3-Asp-Leu-B5-Asp-Glu-Ala-Ala-Phe-Asn-S8-Phe-BztA-His-Aib-NH2]
Solubility in PBS; Solubility (uM)
  Solubility: 29 µM (≈ 56.9 µg/mL)
CHI Log D procedure
  chromatographic logD: 2.6
[1]; [2]
  IC50: 85 nM

## CC(=O)N1CCC[C@]12CC=CCCCC1(CCCC=CCCCCCC[C@@](C)(C(=O)N[C@@H](Cc3ccccc3)C(=O)N[C@@H](Cc3csc4ccccc34)C(=O)N[C@H](Cc3c[nH]cn3)C(N)=O)NC(=O)[C@H](CC(N)=O)NC(=O)[C@H](Cc3ccccc3)NC(=O)[C@H](C)NC(=O)[C@H](C)NC(=O)[C@H](CCC(=O)O)NC(=O)[C@H](CC(=O)O)NC1=O)NC(=O)[C@H](CC(C)C)NC(=O)[C@H](CC(=O)O)NC2=O (stereo partly drawn) [I-745, Ac-PL3-Asp-Leu-B5-Asp-Glu-Ala-Ala-Phe-Asn-S8-Phe-BztA-dHis-NH2]
Solubility in PBS
  Solubility: 10 µM (≈ 18.8 µg/mL)
CHI Log D procedure
  CHI Log D: 2.61
[1]; [2]
  IC50: 80 nM
[1]; read-out: FP EC50
  IC50: 80 nM

## CC(=O)N1CCC[C@]12CC=CCCCC1(CCCC=CCCCCCC[C@@](C)(C(=O)N[C@@H](Cc3ccccc3)C(=O)N[C@@H](Cc3csc4ccccc34)C(=O)N(C)[C@@H](Cc3cnc[nH]3)C(N)=O)NC(=O)[C@H](CC(N)=O)NC(=O)[C@H](Cc3ccccc3)NC(=O)[C@H](C)NC(=O)[C@H](C)NC(=O)[C@H](CCC(=O)O)NC(=O)[C@H](CC(=O)O)NC1=O)NC(=O)[C@H](CC(C)C)NC(=O)[C@H](CC(=O)O)NC2=O (stereo partly drawn) [I-747, Ac-PL3-Asp-Leu-B5-Asp-Glu-Ala-Ala-Phe-Asn-S8-Phe-BztA-NMeHis-NH2]
Solubility in PBS
  Solubility: 15 µM (≈ 28.4 µg/mL)
CHI Log D procedure
  CHI Log D: 2.492
[1]; [2]
  IC50: 2390 nM
[1]; read-out: FP EC50
  IC50: 2390 nM

## CC(=O)N1CCC[C@]12CC=CCCCC1(CCCC=CCCCCCC[C@@](C)(C(=O)N[C@@H](Cc3ccccc3)C(=O)N[C@@H](Cc3csc4ccccc34)C(=O)N[C@@H](C(N)=O)[C@H](C)O)NC(=O)[C@H](CC(N)=O)NC(=O)[C@H](Cc3ccccc3)NC(=O)[C@H](C)NC(=O)[C@H](C)NC(=O)[C@H](CCC(=O)O)NC(=O)[C@H](CC(=O)O)NC1=O)NC(=O)[C@H](CC(C)C)NC(=O)[C@H](CC(=O)O)NC2=O (stereo partly drawn) [I-755, Ac-PL3-Asp-Leu-B5-Asp-Glu-Ala-Ala-Phe-Asn-S8-Phe-BztA-dThr-NH2]
Solubility in PBS
  Solubility: 47 µM (≈ 86.6 µg/mL)
CHI Log D procedure
  CHI Log D: 2.684
[1]; read-out: FP EC50
  IC50: 88 nM
[1]; read-out: beta-Catenin FP IC50
  IC50: 88 nM

## CC(=O)N1CCC[C@]12CC=CCCCC1(CCCC=CCCCCCC[C@@](C)(C(=O)N[C@@H](Cc3ccccc3)C(=O)N[C@@H](Cc3csc4ccccc34)C(=O)N[C@H](CO)C(N)=O)NC(=O)[C@H](CC(N)=O)NC(=O)[C@H](Cc3ccccc3)NC(=O)[C@H](C)NC(=O)[C@H](C)NC(=O)[C@H](CCC(=O)O)NC(=O)[C@H](CC(=O)O)NC1=O)NC(=O)[C@H](CC(C)C)NC(=O)[C@H](CC(=O)O)NC2=O (stereo partly drawn) [I-756, Ac-PL3-Asp-Leu-B5-Asp-Glu-Ala-Ala-Phe-Asn-S8-Phe-BztA-dSer-NH2]
Solubility in PBS; Solubility (uM)
  Solubility: 49 µM (≈ 89.6 µg/mL)
CHI Log D procedure
  chromatographic logD: 2.61
[1]; read-out: beta-Catenin FP IC50
  IC50: 56 nM

## CC(=O)N1CCC[C@]12CC=CCCCC1(CCCC=CCCCCCC[C@@](C)(C(=O)N[C@@H](Cc3ccccc3)C(=O)N[C@@H](Cc3csc4ccccc34)C(=O)N[C@H](CC(N)=O)C(N)=O)NC(=O)[C@H](CC(N)=O)NC(=O)[C@H](Cc3ccccc3)NC(=O)[C@H](C)NC(=O)[C@H](C)NC(=O)[C@H](CCC(=O)O)NC(=O)[C@H](CC(=O)O)NC1=O)NC(=O)[C@H](CC(C)C)NC(=O)[C@H](CC(=O)O)NC2=O (stereo partly drawn) [I-758, Ac-PL3-Asp-Leu-B5-Asp-Glu-Ala-Ala-Phe-Asn-S8-Phe-BztA-dAsn-NH2]
Solubility in PBS
  Solubility: 47 µM (≈ 87.2 µg/mL)
CHI Log D procedure
  CHI Log D: 2.571
[1]; read-out: FP EC50
  IC50: 47 nM
[1]; read-out: beta-Catenin FP IC50
  IC50: 47 nM

## CC(=O)N1CCC[C@]12CC=CCCCC1(CCCC=CCCCOC(=O)N3CC[C@@](C(=O)N[C@@H](Cc4ccsc4)C(=O)N[C@@H](Cc4csc5ccccc45)C(=O)N[C@@H](CCC(N)=O)C(N)=O)(C3)NC(=O)[C@H](CCC(N)=O)NC(=O)[C@H](Cc3ccccc3)NC(=O)[C@H](C)NC(=O)[C@H](C)NC(=O)[C@H](CC(=O)O)NC(=O)[C@H](CC(=O)O)NC1=O)NC(=O)[C@H](CC(C)(C)C)NC(=O)[C@H](CC(=O)O)NC2=O (stereo partly drawn) [I-764, Ac-PL3-Asp-Npg-B5-Asp-Asp-Ala-Ala-Phe-Gln-PyrS2-3Thi-BztA-Gln-NH2]
Solubility in PBS
  Solubility: 45 µM (≈ 86.9 µg/mL)
CHI Log D procedure
  CHI Log D: 2.212
[1]; read-out: FP EC50
  IC50: 14 nM
[1]; read-out: beta-Catenin FP IC50
  IC50: 14 nM

## CC(=O)N1CCC[C@]12CC=CCCCC1(CCCC=CCOC(=O)N(C)CCC[C@@](C)(C(=O)N[C@@H](Cc3ccsc3)C(=O)N[C@@H](Cc3csc4ccccc34)C(=O)N[C@@H](CCC(N)=O)C(N)=O)NC(=O)[C@H](CC(N)=O)NC(=O)[C@H](Cc3ccccc3)NC(=O)[C@H](C)NC(=O)[C@H](C)NC(=O)[C@H](CC(=O)O)NC(=O)[C@H](CC(=O)O)NC1=O)NC(=O)[C@H](CC(C)(C)C)NC(=O)[C@H](CC(=O)O)NC2=O (stereo partly drawn) [I-765, Ac-PL3-Asp-Npg-B5-Asp-Asp-Ala-Ala-Phe-Asn-SeN-3Thi-BztA-Gln-NH2]
Solubility in PBS
  Solubility: 49 µM (≈ 94.1 µg/mL)
CHI Log D procedure
  CHI Log D: 1.71
[1]; read-out: FP EC50
  IC50: 228 nM
[1]; read-out: beta-Catenin FP IC50
  IC50: 228 nM

## CC(=O)N1CCC[C@]12CC=CCCCC1(CCCC=CCOC(=O)N(C)CCC[C@@](C)(C(=O)N[C@@H](Cc3ccsc3)C(=O)N[C@@H](Cc3csc4ccccc34)C(=O)N[C@@H](CCC(N)=O)C(N)=O)NC(=O)[C@H](CC(N)=O)NC(=O)[C@H](Cc3ccccc3)NC(=O)[C@H](C)NC(=O)[C@H](C)NC(=O)[C@H](CC(=O)O)NC(=O)[C@H](CC(=O)O)NC1=O)NC(=O)[C@H](CC(C)(C)C)NC(=O)[C@H](CC(=O)O)NC2=O (stereo partly drawn) [I-766, Ac-PL3-Asp-Npg-B5-Asp-Asp-Ala-Ala-Phe-Asn-SeN-3Thi-BztA-Gln-NH2]
Solubility in PBS
  Solubility: 50 µM (≈ 96 µg/mL)
CHI Log D procedure
  CHI Log D: 1.853
[1]; read-out: FP EC50
  IC50: 55 nM
[1]; read-out: beta-Catenin FP IC50
  IC50: 55 nM

## CC(=O)N1CCC[C@]12CC=CCCCC1(CCCC=CCOC(=O)N(C)CCC[C@@](C)(C(=O)N[C@@H](Cc3ccsc3)C(=O)N[C@@H](Cc3csc4ccccc34)C(=O)N[C@@H](Cc3c[nH]cn3)C(N)=O)NC(=O)[C@H](CC(N)=O)NC(=O)[C@H](Cc3ccccc3)NC(=O)[C@H](C)NC(=O)[C@H](C)NC(=O)[C@H](CC(=O)O)NC(=O)[C@H](CC(=O)O)NC1=O)NC(=O)[C@H](CC(C)(C)C)NC(=O)[C@H](CC(=O)O)NC2=O (stereo partly drawn) [I-773, Ac-PL3-Asp-Npg-B5-Asp-Asp-Ala-Ala-Phe-Asn-SeN-3Thi-BztA-His-NH2]
Solubility in PBS
  Solubility: 47 µM (≈ 90.7 µg/mL)
CHI Log D procedure
  CHI Log D: 1.76
[1]; read-out: FP EC50
  IC50: 167 nM
[1]; read-out: beta-Catenin FP IC50
  IC50: 167 nM
